According to US9802937B2, “Substituted pyrazolo{4,3-D}pyrimidines as kinase inhibitors” (ORIGENIS GMBH, priority 2011, dated 2017):

Legend:
[1] = biological target: T1, SYK kinase (Homo sapiens, UniProt P43405); experiment: SYK Assay (OMNIA KINASE ASSAY, SOX peptide fluorescence); assay type: biochemical; settings: apparent Ki calculated from the IC50 using the Cheng-Prusoff equation; 1 mM ATP, 30° C.; read-out: SYK Activities: Ki
T1 construct: purchased Invitrogen, Carlsbad
Outline: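 Continuous Omnia assay: SYK phosphorylation of SOX-labelled Tyr 7 peptide (10 µM) with 1 mM ATP and 0.2 mM DTT at 30 °C. Fluorescence (ex 360/em 485 nm) read every 30 s for 30 min. Reaction velocity versus inhibitor concentration gives IC50, converted to apparent Ki by Cheng-Prusoff.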

[2] = biological target: LRRK2 (Homo sapiens, UniProt Q5S007); experiment: LRRK2-LRRK2 G2019S-Assay (LanthaScreen Eu Kinase Binding Assay); settings: 5 nM LRRK2 or their mutants, 10 nM tracer 236, RT 1 h; read-out: LRRK2 Activities: IC50
LRRK2, sequence (Q5S007 970-2527 limits assumed): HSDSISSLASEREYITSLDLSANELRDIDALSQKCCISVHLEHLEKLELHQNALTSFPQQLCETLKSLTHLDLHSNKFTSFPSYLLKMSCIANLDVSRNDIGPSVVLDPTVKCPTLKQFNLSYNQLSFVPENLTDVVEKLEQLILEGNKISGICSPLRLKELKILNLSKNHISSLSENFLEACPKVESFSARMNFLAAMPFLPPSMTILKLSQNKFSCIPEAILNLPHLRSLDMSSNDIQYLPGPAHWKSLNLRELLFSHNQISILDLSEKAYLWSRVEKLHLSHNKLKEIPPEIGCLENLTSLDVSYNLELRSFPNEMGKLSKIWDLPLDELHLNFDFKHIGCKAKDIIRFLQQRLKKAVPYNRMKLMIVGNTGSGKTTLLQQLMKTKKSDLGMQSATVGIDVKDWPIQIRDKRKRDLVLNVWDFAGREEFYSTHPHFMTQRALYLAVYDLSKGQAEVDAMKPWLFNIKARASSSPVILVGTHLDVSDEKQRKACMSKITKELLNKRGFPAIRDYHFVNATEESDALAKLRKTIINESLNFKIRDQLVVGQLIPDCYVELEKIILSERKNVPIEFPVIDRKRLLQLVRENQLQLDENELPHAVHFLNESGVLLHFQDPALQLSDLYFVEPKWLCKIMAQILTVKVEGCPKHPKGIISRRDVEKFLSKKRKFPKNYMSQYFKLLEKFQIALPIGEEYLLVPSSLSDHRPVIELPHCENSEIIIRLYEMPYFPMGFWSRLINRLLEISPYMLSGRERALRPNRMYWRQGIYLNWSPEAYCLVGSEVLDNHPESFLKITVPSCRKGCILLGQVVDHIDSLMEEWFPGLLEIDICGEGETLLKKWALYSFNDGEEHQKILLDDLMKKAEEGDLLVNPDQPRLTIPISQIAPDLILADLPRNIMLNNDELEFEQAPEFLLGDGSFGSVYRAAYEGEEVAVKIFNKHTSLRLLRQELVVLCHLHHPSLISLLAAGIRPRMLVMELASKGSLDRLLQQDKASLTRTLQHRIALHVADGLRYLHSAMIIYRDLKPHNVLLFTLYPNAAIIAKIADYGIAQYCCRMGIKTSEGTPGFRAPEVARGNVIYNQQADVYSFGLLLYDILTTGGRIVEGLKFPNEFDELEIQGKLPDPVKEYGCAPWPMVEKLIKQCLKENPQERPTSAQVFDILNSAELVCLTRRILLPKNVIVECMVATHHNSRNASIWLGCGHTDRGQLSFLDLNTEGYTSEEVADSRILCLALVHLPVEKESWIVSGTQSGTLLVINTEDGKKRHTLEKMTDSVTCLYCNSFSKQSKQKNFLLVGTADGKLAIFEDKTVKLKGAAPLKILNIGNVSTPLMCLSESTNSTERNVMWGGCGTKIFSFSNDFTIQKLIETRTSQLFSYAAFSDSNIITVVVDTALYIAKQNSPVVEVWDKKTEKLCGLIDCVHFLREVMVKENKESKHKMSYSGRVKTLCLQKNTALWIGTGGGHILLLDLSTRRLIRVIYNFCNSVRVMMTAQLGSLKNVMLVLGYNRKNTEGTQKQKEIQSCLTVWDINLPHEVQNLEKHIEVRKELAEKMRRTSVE
Outline: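 TR-FRET tracer-displacement binding assay with 5 nM LRRK2 or mutant, 2 nM Eu-anti-GST antibody and 10 nM tracer 236 in kinase buffer A. Incubated 1 h at RT; 665/615 nm emission ratio read (ex 340 nm). IC50 from variable-slope sigmoidal fit.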

[3] = biological target: MYLK (Homo sapiens, UniProt Q15746); experiment: MYLK Assay (LanthaScreen Eu Kinase Binding Assay); settings: 5 nM MYLK, 30 nM tracer 236, RT 1 h; read-out: MYLK Activities: IC50
MYLK, sequence (Q15746 whole entry): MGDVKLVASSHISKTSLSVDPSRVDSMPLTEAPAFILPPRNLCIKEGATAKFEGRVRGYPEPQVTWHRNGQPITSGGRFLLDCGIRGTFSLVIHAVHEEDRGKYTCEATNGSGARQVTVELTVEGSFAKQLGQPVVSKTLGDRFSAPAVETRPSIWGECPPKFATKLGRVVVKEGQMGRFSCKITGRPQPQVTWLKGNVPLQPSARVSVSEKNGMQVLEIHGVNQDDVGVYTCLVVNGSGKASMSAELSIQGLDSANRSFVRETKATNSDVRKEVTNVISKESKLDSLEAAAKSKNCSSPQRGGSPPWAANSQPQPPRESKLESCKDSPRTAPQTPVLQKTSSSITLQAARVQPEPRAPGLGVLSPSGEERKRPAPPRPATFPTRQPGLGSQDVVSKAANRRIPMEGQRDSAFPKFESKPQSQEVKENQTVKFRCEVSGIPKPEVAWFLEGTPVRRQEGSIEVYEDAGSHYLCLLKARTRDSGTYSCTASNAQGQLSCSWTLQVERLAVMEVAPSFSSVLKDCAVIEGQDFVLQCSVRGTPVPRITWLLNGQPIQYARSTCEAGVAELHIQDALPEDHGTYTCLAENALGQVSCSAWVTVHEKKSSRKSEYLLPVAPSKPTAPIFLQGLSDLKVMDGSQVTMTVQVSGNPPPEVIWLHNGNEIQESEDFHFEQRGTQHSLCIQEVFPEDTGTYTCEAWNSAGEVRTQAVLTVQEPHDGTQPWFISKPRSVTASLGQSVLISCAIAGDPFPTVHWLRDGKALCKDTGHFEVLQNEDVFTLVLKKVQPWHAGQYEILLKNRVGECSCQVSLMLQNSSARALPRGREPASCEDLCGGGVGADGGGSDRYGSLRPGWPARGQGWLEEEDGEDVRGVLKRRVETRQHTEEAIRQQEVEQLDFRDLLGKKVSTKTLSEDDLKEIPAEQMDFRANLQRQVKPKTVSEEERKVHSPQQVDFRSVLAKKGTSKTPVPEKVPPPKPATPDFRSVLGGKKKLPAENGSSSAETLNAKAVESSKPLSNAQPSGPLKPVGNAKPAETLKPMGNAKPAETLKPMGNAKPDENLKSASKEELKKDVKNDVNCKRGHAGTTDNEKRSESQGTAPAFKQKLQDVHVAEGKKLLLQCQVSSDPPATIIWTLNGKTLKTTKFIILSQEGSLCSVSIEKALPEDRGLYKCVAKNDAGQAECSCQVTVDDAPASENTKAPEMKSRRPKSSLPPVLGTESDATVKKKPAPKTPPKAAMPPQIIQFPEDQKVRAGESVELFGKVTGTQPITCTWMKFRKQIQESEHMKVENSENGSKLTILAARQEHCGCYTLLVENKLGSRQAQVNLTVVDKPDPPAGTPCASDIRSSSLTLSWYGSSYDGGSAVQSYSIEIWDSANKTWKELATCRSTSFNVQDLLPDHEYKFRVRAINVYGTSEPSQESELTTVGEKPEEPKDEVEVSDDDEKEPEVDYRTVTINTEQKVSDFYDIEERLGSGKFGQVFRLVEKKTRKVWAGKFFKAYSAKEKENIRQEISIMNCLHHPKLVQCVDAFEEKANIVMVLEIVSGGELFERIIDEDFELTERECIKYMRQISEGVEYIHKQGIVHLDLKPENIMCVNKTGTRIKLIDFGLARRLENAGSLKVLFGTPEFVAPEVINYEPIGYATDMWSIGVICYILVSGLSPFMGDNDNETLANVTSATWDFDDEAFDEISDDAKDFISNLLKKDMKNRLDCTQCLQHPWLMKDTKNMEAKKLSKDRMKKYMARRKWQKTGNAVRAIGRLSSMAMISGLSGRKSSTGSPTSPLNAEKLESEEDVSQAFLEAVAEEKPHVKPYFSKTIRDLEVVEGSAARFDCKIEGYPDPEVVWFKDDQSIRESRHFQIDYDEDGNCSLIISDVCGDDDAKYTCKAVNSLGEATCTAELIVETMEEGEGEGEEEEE
Description: In the assay LanthaScreen™ Eu Kinase Binding Assay by Invitrogen Corporation (Carlsbad) the effect of invention of a compound on the phosphorylation is determined by measurement of fluorescence intensity emission ratio based on the binding and displacement of a proprietary, Alexa Fluor® 647-labeled, ATP-competitive kinase inhibitor scaffold (kinase tracer) to the kinase of interest as described above.
To the wells of an 384 well small volume plate (Greiner, Frickenhausen) are added (i) the compound under test in 5% is DMSO/distilled water (5 μl), (ii) 5 μl of the kinase antibody mixture resulting in a final concentration 5 nM MYLK, 2 nM EU-Anti-GST antibody in 1× kinase buffer A. The reaction was started with addition of (iii) 5 μl resulting in a final concentration of 30 nM tracer 236. The assay plate was incubated at RT for 1 h and fluorescence intensity readings were collected using a TECAN M1000 at two wavelengths of λex 340/λem 615 nm and λex 340/λem 665 nm with a delay time of 100 μs and an integration time of 200 μs after 60 minutes. The emission ratio was calculated by division of the acceptor/tracer emission ([…]) by the antibody/donor emission ([…]). The inhibitor concentration was plotted versus the emission ratio to determine the IC50 using XLFit 5.0 (IDBS, Guildford) to fit to a sigmoidal dose response curve with a variable slope.

| Ki [1] | IC50 [2] | IC50 [3] | Compound |
| --- | --- | --- | --- |
| < 10 nM | 100 to 1000 nM | < 5000 nM | NC(=O)c1cccc(Nc2nc(-c3ccccc3)nc3cn[nH]c23)c1 [Example #5, 3-((5-phenyl-1H-pyrazolo[4,3-d]pyrimidin-7-yl)amino)benzamide] |
| < 10 nM | 100 to 1000 nM | < 5000 nM | CC(=O)N1CCN(c2ccc(Nc3nc(-c4cccc(NS(C)(=O)=O)c4)nc4cn[nH]c34)cc2)CC1 [Example #191, N-(3-(7-((4-(4-acetylpiperazin-1-yl)phenyl)amino)-1H-pyrazolo[4,3-d]pyrimidin-5-yl)phenyl)methanesulfonamide] |
| 10 to 100 nM | – | < 5000 nM | Cc1nc2cc(Nc3nc(-c4ccc5c(c4)NC(=O)CO5)nc4cn[nH]c34)ccc2[nH]1 [Example #289, 6-(7-((2-methyl-1H-benzo[d]imidazol-5-yl)amino)-1H-pyrazolo[4,3-d]pyrimidin-5-yl)-2H-benzo[b][1,4]oxazin-3(4H)-one] |
| 100 to 1000 nM | – | < 5000 nM | O=S(=O)(CCO)c1cccc(Nc2nc(-c3cccs3)nc3cn[nH]c23)c1 [Example #255, 2-((3-((5-(thiophen-2-yl)-1H-pyrazolo[4,3-d]pyrimidin-7-yl)amino)phenyl)sulfonyl)ethan-1-ol] |
| 10 to 100 nM | – | < 5000 nM | Cc1nc2cc(Nc3nc(-c4cccc(S(C)(=O)=O)c4)nc4cn[nH]c34)ccc2[nH]1 [Example #252, N-(2-methyl-1H-benzo[d]imidazol-5-yl)-5-(3-(methylsulfonyl)phenyl)-1H-pyrazolo[4,3-d]pyrimidin-7-amine] |
| < 10 nM | – | < 5000 nM | CN1CCN(c2ccc(Nc3nc(-c4cc(C(=O)O)cs4)nc4cn[nH]c34)cc2)CC1 [Example #175, 5-(7-((4-(4-methylpiperazin-1-yl)phenyl)amino)-1H-pyrazolo[4,3-d]pyrimidin-5-yl)thiophene-3-carboxylic acid] |
| 10 to 100 nM | – | < 5000 nM | COc1cccc(Nc2nc(-c3ccccc3)nc3cn[nH]c23)c1 [Example #8, N-(3-methoxyphenyl)-5-phenyl-1H-pyrazolo[4,3-d]pyrimidin-7-amine] |
| 100 to 1000 nM | – | < 5000 nM | CS(=O)(=O)c1ccccc1Nc1nc(-c2ccccc2F)nc2cn[nH]c12 [Example #277, 5-(2-fluorophenyl)-N-(2-(methylsulfonyl)phenyl)-1H-pyrazolo[4,3-d]pyrimidin-7-amine] |
| 10 to 100 nM | – | < 5000 nM | Fc1ccc(-c2nc(Nc3ccc(N4CCOCC4)cc3)c3[nH]ncc3n2)c(F)c1 [Example #286, 5-(2,4-difluorophenyl)-N-(4-morpholinophenyl)-1H-pyrazolo[4,3-d]pyrimidin-7-amine] |
| 10 to 100 nM | 100 to 1000 nM | – | O=C(c1ccc(Nc2nc(-c3ccsc3)nc3cn[nH]c23)cc1)N1CCCC1 [Example #142, pyrrolidin-1-yl(4-((5-(thiophen-3-yl)-1H-pyrazolo[4,3-d]pyrimidin-7-yl)amino)phenyl)methanone] |
| < 10 nM | 100 to 1000 nM | – | O=C1CCc2ccc(Nc3nc(-c4cccc(-c5nn[nH]n5)c4)nc4cn[nH]c34)cc2N1 [Example #196, 7-((5-(3-(2H-tetrazol-5-yl)phenyl)-1H-pyrazolo[4,3-d]pyrimidin-7-yl)amino)-3,4-dihydroquinolin-2(1H)-one] |
| 10 to 100 nM | 100 to 1000 nM | – | Cc1nc2cc(Nc3nc(-c4ccccc4)nc4cn[nH]c34)ccc2[nH]1 [Example #9, N-(2-methyl-1H-benzo[d]imidazol-5-yl)-5-phenyl-1H-pyrazolo[4,3-d]pyrimidin-7-amine] |
| 10 to 100 nM | 100 to 1000 nM | – | Fc1cccc(F)c1-c1nc(Nc2ccc(N3CCN(C4CC4)CC3)cc2)c2[nH]ncc2n1 [Example #283, N-(4-(4-cyclopropylpiperazin-1-yl)phenyl)-5-(2,6-difluorophenyl)-1H-pyrazolo[4,3-d]pyrimidin-7-amine] |
| < 10 nM | 100 to 1000 nM | – | COc1ccc(Nc2nc(-c3cccc(-c4nn[nH]n4)c3)nc3cn[nH]c23)cc1OC [Example #193, 5-(3-(2H-tetrazol-5-yl)phenyl)-N-(3,4-dimethoxyphenyl)-1H-pyrazolo[4,3-d]pyrimidin-7-amine] |

Further lines, the compound ahead of its results:

| Compound | Ki [1] | IC50 [2] | IC50 [3] |
| --- | --- | --- | --- |
| CN1CCN(C2CCN(c3ccc(Nc4nc(-c5cccs5)nc5cn[nH]c45)cc3)CC2)CC1 [Example #290, N-(4-(4-(4-methylpiperazin-1-yl)piperidin-1-yl)phenyl)-5-(thiophen-2-yl)-1H-pyrazolo[4,3-d]pyrimidin-7-amine] | < 10 nM | 100 to 1000 nM | < 5000 nM |
| COc1ccc(-c2nc(Nc3ccc(C(=O)N4CCCC4)cc3)c3[nH]ncc3n2)cc1 [Example #160, (4-((5-(4-methoxyphenyl)-1H-pyrazolo[4,3-d]pyrimidin-7-yl)amino)phenyl)(pyrrolidin-1-yl)methanone] | < 10 nM | – | < 5000 nM |
| CS(=O)(=O)Nc1cccc(-c2nc(Nc3ccc4c(c3)NC(=O)CC4)c3[nH]ncc3n2)c1 [Example #190, N-(3-(7-((2-oxo-1,2,3,4-tetrahydroquinolin-7-yl)amino)-1H-pyrazolo[4,3-d]pyrimidin-5-yl)phenyl)methanesulfonamide] | < 10 nM | 10 to 100 nM | < 5000 nM |
| c1ccc(-c2nc(Nc3cc(C4CC4)[nH]n3)c3[nH]ncc3n2)cc1 [Example #57, N-(5-cyclopropyl-1H-pyrazol-3-yl)-5-phenyl-1H-pyrazolo[4,3-d]pyrimidin-7-amine] | 10 to 100 nM | – | < 5000 nM |
| O=C1COc2ccc(-c3nc(Nc4ccc(N5CCOCC5)cc4)c4[nH]ncc4n3)cc2N1 [Example #288, 6-(7-((4-morpholinophenyl)amino)-1H-pyrazolo[4,3-d]pyrimidin-5-yl)-2H-benzo[b][1,4]oxazin-3(4H)-one] | 10 to 100 nM | – | < 5000 nM |
| COc1cc(Nc2nc(-c3cccc(S(N)(=O)=O)c3)nc3cn[nH]c23)ccc1N1CCOCC1 [Example #240, 3-(7-((3-methoxy-4-morpholinophenyl)amino)-1H-pyrazolo[4,3-d]pyrimidin-5-yl)benzenesulfonamide] | < 10 nM | 100 to 1000 nM | < 5000 nM |
| CN1CCN(c2ccc(Nc3nc(-c4ccc(C(=O)O)cc4)nc4cn[nH]c34)cc2)CC1 [Example #241, 4-(7-((4-(4-methylpiperazin-1-yl)phenyl)amino)-1H-pyrazolo[4,3-d]pyrimidin-5-yl)benzoic acid] | < 10 nM | – | < 5000 nM |
| c1cc(Nc2nc(-c3cc[nH]n3)nc3cn[nH]c23)n[nH]1 [Example #45, N,5-di(1H-pyrazol-3-yl)-1H-pyrazolo[4,3-d]pyrimidin-7-amine] | 100 to 1000 nM | – | < 5000 nM |
| CS(=O)(=O)c1cccc(Nc2nc(-c3ccccc3F)nc3cn[nH]c23)c1 [Example #276, 5-(2-fluorophenyl)-N-(3-(methylsulfonyl)phenyl)-1H-pyrazolo[4,3-d]pyrimidin-7-amine] | 10 to 100 nM | – | < 5000 nM |
| O=C1CCc2ccc(Nc3nc(-c4cocn4)nc4cn[nH]c34)cc2N1 [Example #207, 7-((5-(oxazol-4-yl)-1H-pyrazolo[4,3-d]pyrimidin-7-yl)amino)-3,4-dihydroquinolin-2(1H)-one] | < 10 nM | 100 to 1000 nM | – |
| CC(=O)N1CCN(c2ccc(Nc3nc(-c4nccs4)nc4cn[nH]c34)cc2)CC1 [Example #184, 1-(4-(4-((5-(thiazol-2-yl)-1H-pyrazolo[4,3-d]pyrimidin-7-yl)amino)phenyl)piperazin-1-yl)ethan-1-one] | < 10 nM | 10 to 100 nM | – |
| CC(=O)N1CCN(c2ccc(Nc3nc(-c4ncco4)nc4cn[nH]c34)cc2)CC1 [Example #204, 1-(4-(4-((5-(oxazol-2-yl)-1H-pyrazolo[4,3-d]pyrimidin-7-yl)amino)phenyl)piperazin-1-yl)ethan-1-one] | < 10 nM | 100 to 1000 nM | – |
| O=C1CSc2ccc(Nc3nc(-c4ccsc4)nc4cn[nH]c34)cc2N1 [Example #158, 6-((5-(thiophen-3-yl)-1H-pyrazolo[4,3-d]pyrimidin-7-yl)amino)-2H-benzo[b][1,4]thiazin-3(4H)-one] | 10 to 100 nM | 10 to 100 nM | – |
| c1ccc(-c2nc(Nc3ccc4cn[nH]c4c3)c3[nH]ncc3n2)cc1 [Example #36, N-(1H-indazol-6-yl)-5-phenyl-1H-pyrazolo[4,3-d]pyrimidin-7-amine] | < 10 nM | < 10 nM | – |
